According to patent US10189785B2, “Heterocyclic compound” (TAKEDA PHARMACEUTICAL COMPANY LIMITED, priority 2015, dated 2019):

Experiments:
[1] = target: T1, SPT (SPT2-expressing membrane fraction: human SPT1, human SPT2 and human ssSPTa) (Homo sapiens, UniProt O15269+O15270); test: SPT enzyme inhibition test (Test Example 1); format: biochemical; details: read-out: Rate of inhibition (%) at 1 μM
T1 construct: Full-length human SPT1, human SPT2 and human ssSPTa used; made in house; host or cells: FreeStyle 293 cells (pcDNA3.1 vectors, cotransfection); crude membrane fraction used
T1 sequence (O15269 1-473): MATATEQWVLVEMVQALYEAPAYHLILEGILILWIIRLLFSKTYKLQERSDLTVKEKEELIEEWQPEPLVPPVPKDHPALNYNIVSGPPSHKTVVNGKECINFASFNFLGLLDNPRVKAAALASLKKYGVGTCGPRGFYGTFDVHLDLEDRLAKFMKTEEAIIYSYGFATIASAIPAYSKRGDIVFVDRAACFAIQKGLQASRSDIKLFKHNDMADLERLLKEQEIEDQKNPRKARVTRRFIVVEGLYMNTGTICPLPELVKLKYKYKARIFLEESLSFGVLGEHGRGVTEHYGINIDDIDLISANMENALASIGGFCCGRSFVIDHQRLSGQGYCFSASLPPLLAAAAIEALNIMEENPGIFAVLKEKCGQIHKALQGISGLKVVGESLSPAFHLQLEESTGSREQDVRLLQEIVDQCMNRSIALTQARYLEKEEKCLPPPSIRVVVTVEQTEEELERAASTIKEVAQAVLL
T1 sequence (O15270 1-562): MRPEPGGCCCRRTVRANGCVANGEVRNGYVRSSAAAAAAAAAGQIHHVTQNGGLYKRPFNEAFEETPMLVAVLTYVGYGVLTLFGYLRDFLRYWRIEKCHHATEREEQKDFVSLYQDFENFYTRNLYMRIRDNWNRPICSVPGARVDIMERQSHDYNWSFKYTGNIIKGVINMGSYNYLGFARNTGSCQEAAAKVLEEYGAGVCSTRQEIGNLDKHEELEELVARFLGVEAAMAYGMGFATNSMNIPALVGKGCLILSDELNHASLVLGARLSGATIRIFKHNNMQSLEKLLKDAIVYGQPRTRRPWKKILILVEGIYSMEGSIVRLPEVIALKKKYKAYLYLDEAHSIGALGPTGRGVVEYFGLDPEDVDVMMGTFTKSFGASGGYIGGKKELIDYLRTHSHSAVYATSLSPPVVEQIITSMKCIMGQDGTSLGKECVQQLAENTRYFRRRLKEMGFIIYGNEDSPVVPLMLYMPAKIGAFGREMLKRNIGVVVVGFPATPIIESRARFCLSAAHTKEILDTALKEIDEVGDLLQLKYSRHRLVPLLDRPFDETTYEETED
T1 sequence (Q969W0 1-71 partner): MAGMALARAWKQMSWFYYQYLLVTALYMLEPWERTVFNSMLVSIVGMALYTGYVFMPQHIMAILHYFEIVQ
How it was run: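 Membrane fraction (100 μg/mL stock) of cells expressing human SPT1, SPT2 and ssSPTa was preincubated 60 min at RT with compound in 100 mM Hepes pH 8.0 containing EDTA, DTT and 0.01% BSA. Reaction ran 15 min at RT with 2 mM L-serine and 20 μM palmitoyl CoA (solution concentrations), then formic acid quench. Product measured by RapidFire mass spectrometry against a C17-sphinganine internal standard, giving % inhibition.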

[2] = test system: lung adenocarcinoma cell line HCC4006; test: HCC4006 cell growth inhibition test (Test Example 2); format: cell-based; details: Homo sapiens, 120 h; 1 μM test compound; HCC4006 cells, culture for 5 days, CellTiter-Glo; read-out: Rate of inhibition (%) at 1 μM
How it was run: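 HCC4006 cells in RPMI-1640 with 10% FBS were seeded at 250 cells/well and dosed with compound the next day. After 5 days, viability was read by CellTiter-Glo luminescence. Percent inhibition was calculated against no-compound control and cell-free blank.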

SMILES | inhibition at 1 µM [1] | inhibition at 1 µM [2]
COc1ccc(C(=O)N2CCC(NC(=O)c3ncccc3C(F)(F)F)c3c2cnn3C)cc1OC (stereo not shown) [Example 100A, N-(4-(3,4-dimethoxybenzoyl)-1-methyl-4,5,6,7-tetrahydro-1H-pyrazolo[4,3-b]pyridin-7-yl)-3-(trifluoromethyl)pyridine-2-carboxamide] | 97% | 39%
Cn1ncc(C(=O)N[C@@H]2CCN(C(=O)c3ccc4nccnc4c3)C[C@@H]2c2ccccc2)c1Cl [Example 132B, 5-chloro-1-methyl-N-((3S,4R)-3-phenyl-1-(quinoxalin-6-ylcarbonyl)piperidin-4-yl)-1H-pyrazole-4-carboxamide] | 98% | 45%
CN(C)CCOc1cc(C(F)(F)F)c(C(=O)N[C@@H]2CCN(C(=O)c3cc(Cl)c4nccnc4c3)C[C@@H]2c2ccccc2)cn1 [Example 38B, N-((3S,4R)-1-((8-chloroquinoxalin-6-yl)carbonyl)-3-phenylpiperidin-4-yl)-6-(2-(dimethylamino)ethoxy)-4-(trifluoromethyl)nicotinamide] | 101% | 46%
COc1cc(C(=O)N2CC[C@@H](NC(=O)c3cc(C)nn3C)[C@@H](c3ccccc3)C2)cnc1OC [Example 151B, N-((3S,4R)-1-((5,6-dimethoxypyridin-3-yl)carbonyl)-3-phenylpiperidin-4-yl)-1,3-dimethyl-1H-pyrazole-5-carboxamide] | 99% | 51%
Cc1cc(C(=O)N[C@@H]2CCN(C(=O)c3cc(Cl)c4nccnc4c3)C[C@@H]2c2ccccc2)n(C)n1 [Example 23B, N-((3S,4R)-1-((8-Chloroquinoxalin-6-yl)carbonyl)-3-phenylpiperidin-4-yl)-1,3-dimethyl-1H-pyrazole-5-carboxamide] | 101% | 53%
COc1ccc(C(=O)N2CCC(NC(=O)c3ccccc3Cl)c3c2cnn3CCC(C)(C)O)cc1OC (stereo not shown) [Example 186A, 2-chloro-N-(4-(3,4-dimethoxybenzoyl)-1-(3-hydroxy-3-methylbutyl)-4,5,6,7-tetrahydro-1H-pyrazolo[4,3-b]pyridin-7-yl)benzamide] | 101% | 47%
O=C(N[C@@H]1CCN(C(=O)c2cc(Cl)c3nccnc3c2)C[C@@H]1c1ccccc1)c1ncccc1C(F)(F)F [Example 241B, N-((3S,4R)-1-((8-Chloroquinoxalin-6-yl)carbonyl)-3-phenylpiperidin-4-yl)-3-(trifluoromethyl)pyridine-2-carboxamide] | 101% | 54%
COc1ccc(C(=O)N2CCC(NC(=O)c3ccccc3Cl)c3cn(C)nc32)cc1OC (stereo not shown) [Example 3A, 2-Chloro-N-(7-(3,4-dimethoxybenzoyl)-2-methyl-4,5,6,7-tetrahydro-2H-pyrazolo[3,4-b]pyridin-4-yl)benzamide] | 98% | 41%
COc1cc(C(=O)N2CC[C@@H](NC(=O)c3cc(C(F)(F)F)nn3C)[C@@H](c3ccccc3)C2)cc2nccnc12 [Example 412B, N-((3S,4R)-1-((8-Methoxyquinoxalin-6-yl)carbonyl)-3-phenylpiperidin-4-yl)-1-methyl-3-(trifluoromethyl)-1H-pyrazole-5-carboxamide] | 102% | 47%
COc1ncc(C(=O)N2CCC(NC(=O)c3ccc(Cl)cc3C(F)(F)F)c3c2cnn3CC(F)F)cc1Cl (stereo not shown) [Example 126A, 4-Chloro-N-(4-((5-chloro-6-methoxypyridin-3-yl)carbonyl)-1-(2,2-difluoroethyl)-4,5,6,7-tetrahydro-1H-pyrazolo[4,3-b]pyridin-7-yl)-2-(trifluoromethyl)benzamide] | 101% | 45%
O=C(N[C@@H]1CCN(C(=O)c2cc(Cl)c3nccnc3c2)C[C@@H]1c1ccccc1)c1ncccc1OC(F)F [Example 31B, N-((3S,4R)-1-((8-Chloroquinoxalin-6-yl)carbonyl)-3-phenylpiperidin-4-yl)-3-(difluoromethoxy)pyridine-2-carboxamide] | 102% | 57%
COc1ccc(C(=O)N2CC[C@H](NC(=O)c3ccccc3Cl)[C@H](c3ccc(F)cc3)C2)cc1OC (relative stereo) [Example 114B, 2-chloro-N-(cis-1-(3,4-dimethoxybenzoyl)-3-(4-fluorophenyl)piperidin-4-yl)benzamide] | 99% | 56%
COc1cc(C(=O)N2CCC(NC(=O)c3ccccc3Cl)c3c2cnn3C)cnc1OC (stereo not shown) [Example 80A, 2-chloro-N-(4-((5,6-dimethoxypyridin-3-yl)carbonyl)-1-methyl-4,5,6,7-tetrahydro-1H-pyrazolo[4,3-b]pyridin-7-yl)benzamide] | 99% | 44%
O=C(N[C@@H]1CCN(C(=O)c2cc(Cl)c3nccnc3c2)C[C@@H]1c1ccc(F)cc1)c1ncccc1C(F)(F)F [Example 245B, N-((3S,4R)-1-((8-Chloroquinoxalin-6-yl)carbonyl)-3-(4-fluorophenyl)piperidin-4-yl)-3-(trifluoromethyl)pyridine-2-carboxamide] | 100% | 53%
COc1cc(C(=O)N2CC[C@@H](NC(=O)c3ccccc3OC(F)(F)F)[C@@H](c3ccccc3)C2)cnc1OC [Example 70B, N-((3S,4R)-1-((5,6-dimethoxypyridin-3-yl)carbonyl)-3-phenylpiperidin-4-yl)-2-(trifluoromethoxy)benzamide] | 100% | 56%
CS(=O)(=O)c1ccc(C(=O)N2CC[C@@H](NC(=O)c3ccccc3OC(F)(F)F)[C@@H](c3ccccc3)C2)cc1Cl [Example 102B, N-((3S,4R)-1-(3-chloro-4-(methylsulfonyl)benzoyl)-3-phenylpiperidin-4-yl)-2-(trifluoromethoxy)benzamide] | 100% | 46%
COc1cc(C(=O)N2CC[C@@H](NC(=O)c3c(C)nn(C)c3Cl)[C@@H](c3ccccc3)C2)cc2nccnc12 [Example 345B, 5-chloro-N-((3S,4R)-1-((8-methoxyquinoxalin-6-yl)carbonyl)-3-phenylpiperidin-4-yl)-1,3-dimethyl-1H-pyrazole-4-carboxamide] | 102% | 48%
COc1cc(C(=O)N2CC[C@@H](NC(=O)c3cnccc3C(F)(F)F)[C@@H](c3ccccc3)C2)cnc1OC [Example 139B, N-((3S,4R)-1-((5,6-dimethoxypyridin-3-yl)carbonyl)-3-phenylpiperidin-4-yl)-4-(trifluoromethyl)nicotinamide] | 100% | 52%
COc1cc(C(=O)N2CC[C@@H](NC(=O)c3cnn(C)c3Cl)[C@@H](c3ccccc3)C2)cnc1OC [Example 150B, 5-chloro-N-((3S,4R)-1-((5,6-dimethoxypyridin-3-yl)carbonyl)-3-phenylpiperidin-4-yl)-1-methyl-1H-pyrazole-4-carboxamide] | 101% | 47%
Cn1cnc2ccc(C(=O)N3CC[C@@H](NC(=O)c4ccccc4OC(F)(F)F)[C@@H](c4ccccc4)C3)cc21 [Example 104B, N-((3S,4R)-1-((1-methyl-1H-benzimidazol-6-yl)carbonyl)-3-phenylpiperidin-4-yl)-2-(trifluoromethoxy)benzamide] | 101% | 53%
